How the values were obtained:
[1] = target: T1, TLR7 (Homo sapiens, UniProt Q9NYK1); test: In vitro human TLR7 binding reporter assay (HEK-Blue, NF-kB/AP1-inducible SEAP); type: cell-based; settings: activity range class, read-out: TLR7 Agonist EC50
T1 construct: human HEK-Blue cells co-expressing a TLR7 or TLR8 gene
T1 sequence (Q9NYK1 27-1049): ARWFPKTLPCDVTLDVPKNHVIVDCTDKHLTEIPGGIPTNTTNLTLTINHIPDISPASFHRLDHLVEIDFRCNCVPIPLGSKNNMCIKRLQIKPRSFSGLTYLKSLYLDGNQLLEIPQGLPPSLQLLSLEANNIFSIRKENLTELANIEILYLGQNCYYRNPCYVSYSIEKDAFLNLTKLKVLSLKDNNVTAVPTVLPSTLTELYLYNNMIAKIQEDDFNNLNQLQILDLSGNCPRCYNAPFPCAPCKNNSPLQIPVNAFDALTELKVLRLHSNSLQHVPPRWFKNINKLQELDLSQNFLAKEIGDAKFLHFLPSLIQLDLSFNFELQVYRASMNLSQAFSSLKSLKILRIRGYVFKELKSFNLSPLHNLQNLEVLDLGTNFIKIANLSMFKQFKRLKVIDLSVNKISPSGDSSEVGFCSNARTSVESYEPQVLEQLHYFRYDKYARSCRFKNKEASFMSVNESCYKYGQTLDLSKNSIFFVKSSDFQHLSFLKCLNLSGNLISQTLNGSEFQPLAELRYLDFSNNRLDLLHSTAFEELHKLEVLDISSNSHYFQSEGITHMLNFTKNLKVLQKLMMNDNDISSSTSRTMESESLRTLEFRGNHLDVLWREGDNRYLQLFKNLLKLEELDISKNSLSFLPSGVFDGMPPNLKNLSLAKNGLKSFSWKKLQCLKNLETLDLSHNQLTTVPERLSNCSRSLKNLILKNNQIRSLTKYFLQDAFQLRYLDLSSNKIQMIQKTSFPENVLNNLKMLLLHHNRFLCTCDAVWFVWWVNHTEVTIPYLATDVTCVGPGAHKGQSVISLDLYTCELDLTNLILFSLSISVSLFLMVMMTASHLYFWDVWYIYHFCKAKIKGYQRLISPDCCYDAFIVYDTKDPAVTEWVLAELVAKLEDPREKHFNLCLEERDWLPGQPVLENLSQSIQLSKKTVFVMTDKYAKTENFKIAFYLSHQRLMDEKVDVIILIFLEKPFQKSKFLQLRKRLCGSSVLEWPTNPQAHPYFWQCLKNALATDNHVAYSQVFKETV
In short: (§1)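 HEK-Blue cells expressing human TLR7 or TLR8 with NF-kB/AP1-inducible SEAP reporter, plated 24 h, then compound-treated 18 h at 37° C, 5% CO2. EC50 normalized to 100% Ymax set by 50 μM reference standard.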

[2] = test system: THP-1 cells; test: Measurement of IL-1β production, hTRF protocol (second alternative procedure), THP-1 cells; type: cell-based, human; settings: Homo sapiens, THP-1, IL-1β production, human; read-out: NLRP3 hILIB EC50
In short: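 THP-1 cells differentiated overnight with 50 ng/ml PMA, then plated at 50,000 cells/well in RPMI with 2% FBS onto serial compound dilutions (top final concentration 10 μM) for 2 hours at 37° C. Supernatant IL-1β measured by hTRF (antibodies at 1:40, overnight at 4° C), read at 665/615 nm against a standard curve.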

[3] = target: T2, TLR8 (Homo sapiens, UniProt Q9NR97); test: In vitro human TLR8 binding reporter assay (HEK-Blue, NF-kB/AP1-inducible SEAP); type: cell-based; settings: activity range class, read-out: TLR8 Agonist EC50
T2 construct: human HEK-Blue cells co-expressing a TLR7 or TLR8 gene
T2 sequence (Q9NR97 27-1041): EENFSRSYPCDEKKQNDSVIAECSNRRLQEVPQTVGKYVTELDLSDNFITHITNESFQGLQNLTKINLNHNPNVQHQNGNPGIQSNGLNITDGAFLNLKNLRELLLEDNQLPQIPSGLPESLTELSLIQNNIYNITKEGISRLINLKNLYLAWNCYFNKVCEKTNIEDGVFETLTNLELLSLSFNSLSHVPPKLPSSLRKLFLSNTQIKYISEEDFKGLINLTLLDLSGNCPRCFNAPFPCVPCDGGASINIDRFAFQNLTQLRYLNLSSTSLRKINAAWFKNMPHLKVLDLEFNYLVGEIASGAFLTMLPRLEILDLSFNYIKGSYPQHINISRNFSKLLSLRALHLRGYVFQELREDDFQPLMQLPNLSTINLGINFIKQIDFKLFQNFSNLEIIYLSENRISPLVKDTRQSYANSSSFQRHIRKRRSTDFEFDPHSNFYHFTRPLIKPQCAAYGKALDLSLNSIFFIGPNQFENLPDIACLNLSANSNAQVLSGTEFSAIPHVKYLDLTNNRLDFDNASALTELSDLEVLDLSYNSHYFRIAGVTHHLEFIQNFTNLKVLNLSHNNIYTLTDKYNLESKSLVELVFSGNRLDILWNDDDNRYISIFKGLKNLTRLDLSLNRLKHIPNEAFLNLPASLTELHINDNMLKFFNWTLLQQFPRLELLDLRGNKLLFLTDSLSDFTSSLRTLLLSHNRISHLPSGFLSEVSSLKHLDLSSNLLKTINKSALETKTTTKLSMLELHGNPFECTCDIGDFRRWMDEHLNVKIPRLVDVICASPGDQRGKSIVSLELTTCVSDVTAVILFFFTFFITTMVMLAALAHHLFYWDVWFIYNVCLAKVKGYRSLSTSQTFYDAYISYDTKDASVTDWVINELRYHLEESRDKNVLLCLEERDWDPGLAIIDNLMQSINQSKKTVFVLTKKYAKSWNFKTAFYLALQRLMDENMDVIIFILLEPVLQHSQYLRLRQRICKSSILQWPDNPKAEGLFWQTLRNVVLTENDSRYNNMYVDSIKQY
In short: as §1

Row | EC50 [1] [µM] | EC50 [2] [µM] | EC50 [3] [µM] | Structure (SMILES)
1 | > 100 | 0.38 | > 100 | Nc1nc2cc(-c3cc[nH]n3)ccc2c2cn(CCNC(=O)c3ccc(OC(F)(F)F)cn3)nc12 [Example 67]
2 | > 100 | 0.37 | 20 to 100 | Cc1nc(C(=O)NCCn2cc3c(n2)c(N)nc2cc(-c4cc[nH]n4)ccc23)c(C)o1 [Example 68]
3 | > 100 | 0.7 | > 100 | Nc1nc2cc(-c3cc[nH]n3)ccc2c2cn(CCNC(=O)c3ccon3)nc12 [Example 69]
4 | > 100 | 1.83 | > 100 | Nc1nc2cc(-c3cc[nH]n3)ccc2c2cn(CCNC(=O)c3ncccn3)nc12 [Example 70]
5 | 20 to 100 | 0.81 | 20 to 100 | Cc1nc(C(=O)NCCn2cc3c(n2)c(N)nc2cc(-c4cc[nH]n4)ccc23)c(C(F)(F)F)o1 [Example 71]
6 | 20 to 100 | 0.14 | 20 to 100 | Nc1nc2cc(-c3cc[nH]n3)ccc2c2cn(CCNC(=O)c3ccc(Cl)cn3)nc12 [Example 72]
7 | > 100 | 2.96 | > 100 | Nc1nc2cc(-c3cc[nH]n3)ccc2c2cn(CCNC(=O)c3cccnn3)nc12 [Example 73]
8 | > 100 | 0.25 | 20 to 100 | Nc1nc2cc(-c3cc[nH]n3)ccc2c2cn(CCNC(=O)c3ccccc3F)nc12 [Example 74]
9 | > 100 | 0.64 | > 100 | Nc1nc2cc(-c3cc[nH]n3)ccc2c2cn(CCNC(=O)c3ccncn3)nc12 [Example 75]
10 | > 100 | 0.33 | > 100 | Cc1nc(C(=O)NCCn2cc3c(n2)c(N)nc2cc(-c4cc[nH]n4)ccc23)co1 [Example 76]
11 | > 100 | 1.68 | > 100 | Nc1nc2cc(-c3cc[nH]n3)ccc2c2cn(CCNC(=O)c3cccc(F)c3)nc12 [Example 77]
12 | > 100 | 4.71 | > 100 | Cc1cc(Nc2cccc(C(=O)NCCn3cc4c(n3)c(N)nc3cc(-c5cc[nH]n5)ccc34)n2)n(C)n1 [Example 78]
13 | > 100 | 1.59 | > 100 | COc1cccc(C(=O)NCCn2cc3c(n2)c(N)nc2cc(-c4cc[nH]n4)ccc23)c1 [Example 79]
14 | > 100 | 2.07 | 20 to 100 | CC(C)(C)OC(=O)Nc1nc(C(=O)NCCn2cc3c(n2)c(N)nc2cc(-c4cc[nH]n4)ccc23)cs1 [Example 80]
15 | > 100 | 0.68 | 20 to 100 | COc1ccccc1C(=O)NCCn1cc2c(n1)c(N)nc1cc(-c3cc[nH]n3)ccc12 [Example 81]
16 | > 100 | 0.73 | 20 to 100 | Nc1nc2cc(-c3cc[nH]n3)ccc2c2cn(CCNC(=O)c3cccc(Cl)c3)nc12 [Example 82]
17 | > 100 | 0.36 | > 100 | Nc1nc2cc(-c3cc[nH]n3)ccc2c2cn(CCNC(=O)c3cnccn3)nc12 [Example 83]
18 | > 100 | 1.79 | > 100 | Nc1nc2cc(-c3cc[nH]n3)ccc2c2cn(CCNC(=O)c3cnco3)nc12 [Example 84]

Row | EC50 [1] [µM] | EC50 [2] [µM] | EC50 [3] [µM] | Structure (SMILES)
19 | 20 to 100 | 0.4 | 20 to 100 | Nc1nc2cc(-c3cc[nH]n3)ccc2c2cn(CCNC(=O)c3ncc(Cl)cc3F)nc12 [Example 85]
20 | > 100 | 2.77 | > 100 | Nc1nc2cc(-c3cc[nH]n3)ccc2c2cn(CCNC(=O)c3csc(-c4ccncc4)n3)nc12 [Example 86]
21 | > 100 | 1.03 | > 100 | Cn1cnc(C(=O)NCCn2cc3c(n2)c(N)nc2cc(-c4cc[nH]n4)ccc23)c1 [Example 87]
22 | 20 to 100 | 0.13 | 20 to 100 | Nc1nc2cc(-c3cc[nH]n3)ccc2c2cn(CCNC(=O)c3csc(Cl)n3)nc12 [Example 88]
23 | > 100 | 0.12 | 1 to 20 | Nc1nc2cc(-c3cc[nH]n3)ccc2c2cn(CCNC(=O)c3ccc(F)c(Cl)n3)nc12 [Example 89]
24 | 20 to 100 | 0.08 | 20 to 100 | Nc1nc2cc(-c3cc[nH]n3)ccc2c2cn(CCNC(=O)c3cccc(C(F)(F)F)n3)nc12 [Example 90]
25 | > 100 | 1.17 | 20 to 100 | Nc1nc2cc(-c3cc[nH]n3)ccc2c2cn(CCNC(=O)c3ncc(C(F)(F)F)cc3F)nc12 [Example 91]
26 | > 100 | 1.07 | > 100 | Nc1nc2cc(-c3cc[nH]n3)ccc2c2cn(CCNC(=O)c3ncccc3Cl)nc12 [Example 92]
27 | > 100 | 0.63 | > 100 | Nc1nc2cc(-c3cc[nH]n3)ccc2c2cn(CCNC(=O)C3CCCCO3)nc12 (stereo not drawn) [Example 93]
28 | > 100 | 0.21 | 20 to 100 | Cc1ccc(C(=O)NCCn2cc3c(n2)c(N)nc2cc(-c4cc[nH]n4)ccc23)nc1 [Example 94]
29 | > 100 | 0.09 | > 100 | Nc1nc2cc(-c3cc[nH]n3)ccc2c2cn(CCNC(=O)c3cscn3)nc12 [Example 95]
30 | > 100 | 0.31 | 20 to 100 | Cc1csc(C(=O)NCCn2cc3c(n2)c(N)nc2cc(-c4cc[nH]n4)ccc23)n1 [Example 96]
31 | > 100 | 0.23 | > 100 | Nc1nc2cc(-c3cc[nH]n3)ccc2c2cn(CCNC(=O)c3nccs3)nc12 [Example 97]
32 | > 100 | 1.59 | > 100 | Nc1nc2cc(-c3cc[nH]n3)ccc2c2cn(CCNC(=O)c3cnc4ccccn4c3=O)nc12 [Example 98]
33 | 20 to 100 | 0.46 | > 100 | Cn1ccnc1C(=O)NCCn1cc2c(n1)c(N)nc1cc(-c3cc[nH]n3)ccc12 [Example 99]
34 | > 100 | 1.67 | > 100 | Cn1cnc2c(C(=O)NCCn3cc4c(n3)c(N)nc3cc(-c5cc[nH]n5)ccc34)cccc21 [Example 100]
35 | > 100 | 2.39 | > 100 | Nc1nc2cc(-c3cc[nH]n3)ccc2c2cn(CCNC(=O)c3cnn4cccnc34)nc12 [Example 101]

From US12037344B2, “NLRP3 modulators” (INNATE TUMOR IMMUNITY, INC., priority 2018, dated 2024)
